These results are taken from US20210361598A1, “COMPOUNDS FOR PREVENTION AND TREATMENT OF POST-INTENSIVE CARE COGNITIVE DYSFUNCTION AND COGNITIVE DYSFUNCTION RESULTING FROM RESPIRATORY DISTRESS” (Abrexa Pharmaceuticals, Inc., priority 2020, published 2021).

“Also recorded” adds a separate entry of the source.

The subject of data set [1] is neonatal hypoxic-ischemic brain injury in p10 C57BL6 mice. The data set is described as follows: TTC staining infarct measurement in neonatal hypoxic-ischemic (HI) injury mouse model. It is filed as in vivo. On the procedure: (§1) Postnatal day 10 mice were subjected to the modified Vanucci-Rice model of neonatal hypoxic-ischemic injury (permanent right common carotid artery ligation followed by 8% oxygen/balance nitrogen exposure) and then treatment started the same day by daily oral gavage with J147 at 10 mg/kg/day for 2 weeks after injury. Infarction volume, performance on functional tests of coordination, locomotion and memory, markers of neurogenesis, and apoptotic cell death were measured. Hypoxic-ischemic (HI) injury and J147 treatment: To induce HI injury, permanent right common carotid artery ligation was performed in p10 C57BL6 mice followed by 8% oxygen/balance nitrogen exposure for 45 min at 37° C. hypoxic chamber. From the day of HI injury, either J147 (10 mg/kg/day) or vehicle (corn oil, same volume) were once daily administered through oral gavage for a period of two weeks. TTC staining: 24 h after HI injury, 2 mm coronal brain sections were immersed in 1% 2,3,5-Triphenyltetrazolium chloride (TTC) at 37° C. for 30 min. Images of individual sections were digitized and infarct area was measured with the ImageJ software. Injury volumes were calculated using [contralateral hemisphere volume-(ipsilateral hemisphere volume-lesion volume)]/contralateral hemisphere volume×100.

For data set [2] the test system is unchanged. The data set is described as follows: Postmortem MRI volumetric measurement of lesion in neonatal HI mouse model. It is filed as in vivo. On the procedure: Postnatal day 10 mice were subjected to the modified Vanucci-Rice model of neonatal hypoxic-ischemic injury (permanent right common carotid artery ligation followed by 8% oxygen/balance nitrogen exposure) and then treatment started the same day by daily oral gavage with J147 at 10 mg/kg/day for 2 weeks after injury. Infarction volume, performance on functional tests of coordination, locomotion and memory, markers of neurogenesis, and apoptotic cell death were measured. Hypoxic-ischemic (HI) injury and J147 treatment: To induce HI injury, permanent right common carotid artery ligation was performed in p10 C57BL6 mice followed by 8% oxygen/balance nitrogen exposure for 45 min at 37° C. hypoxic chamber. From the day of HI injury, either J147 (10 mg/kg/day) or vehicle (corn oil, same volume) were once daily administered through oral gavage for a period of two weeks. Magnetic resonance imaging (MRI): […] A 3D rapid acquisition with refocused echoes sequence was used (TE/TR=40/2000 ms, RARE factor=8, 4 signal averages, FOV=16.0 mm×9.0 mm×18.0 mm, matrix size=128×72×144, native resolution≈125×125×125 um3, time=3 h). Volumetric measurements were performed using ROI editor software.

Data set [3] concerns neonatal hypoxic-ischemic encephalopathy (HIE) in C57BL6 mice. The data set is described as follows: TUNEL staining, dose dependency of apoptotic cell death in dentate gyrus, neonatal HIE mouse model. The data set is classed as in vivo. Conditions: n=6, HIE untreated 141.7+56.6. On the procedure:
C57BL6 mice were subjected to complete unilateral carotid blockage using cauterizer at P10 followed by 45 min hypoxic exposure at 8% O2, and this was followed by daily oral gavage delivery of J147 in a range of doses or vehicle at P10-P14. Then animals were sacrificed and processed for TUNEL staining. In sham group, very few TUNEL+ cells are observed in dentate gyrus (DG, 4.7+4.1/each). […] For 10 μg/g/day group and 25 μg/g/day group, 42.2+23 (p<0.001) and 31.7+21.4 (p<0.001) cells are found in DG (One-way ANOVA; n=6).

Data set [4] has as its system neonatal hypoxic-ischemic brain injury in p10 C57BL6 mice. Put plainly: Open field test in HI mice. The data set is classed as in vivo, mouse. The settings on record: 4 days post HI. On the procedure: as §1, with “TTC staining: 24 h after HI injury, 2 mm coronal brain sections were immersed in 1% 2,3,5-Triphenyltetrazolium chloride (TTC) at 37° C. for 30 min. Images of individual sections were digitized and infarct area was measured with the ImageJ software. Injury volumes were calculated using [contralateral hemisphere volume-(ipsilateral hemisphere volume-lesion volume)]/contralateral hemisphere volume×100.” left out

Data set [5] has the same test system. The data set is described as follows: Rotarod test in HI mice. It is filed as in vivo, mouse. Conditions: 5 weeks after HI. On the procedure:
as §1, with “TTC staining: 24 h after HI injury, 2 mm coronal brain sections were immersed in 1% 2,3,5-Triphenyltetrazolium chloride (TTC) at 37° C. for 30 min. Images of individual sections were digitized and infarct area was measured with the ImageJ software. Injury volumes were calculated using [contralateral hemisphere volume-(ipsilateral hemisphere volume-lesion volume)]/contralateral hemisphere volume×100.” left out
In general terms: The rotarod test checks motor coordination on a turning rod.

Data set [6] shares this test system. The data set is described as follows: Y-maze spontaneous alternation test in HI mice. The settings on record: 50 days after HI; p<0.001. It is filed as in vivo, mouse. On the procedure:
as §1, with “TTC staining: 24 h after HI injury, 2 mm coronal brain sections were immersed in 1% 2,3,5-Triphenyltetrazolium chloride (TTC) at 37° C. for 30 min. Images of individual sections were digitized and infarct area was measured with the ImageJ software. Injury volumes were calculated using [contralateral hemisphere volume-(ipsilateral hemisphere volume-lesion volume)]/contralateral hemisphere volume×100.” left out

Data set [7] shares this test system. The data set is described as follows: Neural precursor marker fluorescence staining in HI mice. It is filed as in vivo, mouse.
For data set [8], the system named is neonatal hypoxic-ischemia (HI) in mice. The data set is described as follows: NeuN+ area and TUNEL+ cell count in hippocampus of HI mice.
Protocol: Neonatal hypoxic-ischemia (HI) was performed at P10 and daily 10 μg/g J147 was gavage-fed from P10 to P14.
Data set [9] has as its system post-surgical cognitive dysfunction. Conditions: cited from earlier work; for Effect on post-surgical cognitive dysfunction: literature reports, after surgery.

On to `COc1cccc(/C=N/N(C(=O)C(F)(F)F)c2ccc(C)cc2C)c1` [J147], for which the “Area of brain injury / lesion size by TTC staining (FIG. 2)” value in [1] (24 hours after HI injury, J147 10 mg/kg/day oral gavage, 10 mg/kg/day) is listed as “reduced lesion size; also recorded: reduced areal extent of injury; also recorded: significantly reduces the area of brain injury”. Further, the “Infarct size as measured by TTC staining, reduction relative to HI controls” value in data set [1] (one day of J147 treatment, 10 mg/kg/day oral gavage, 24 h after HI injury, p<0.001) was determined as 48%. In addition, the “Ipsilateral hemisphere volume as percentage of contralateral hemisphere volume by MRI, area of brain injury (FIG. 3)” value in data set [2] (50 days after hypoxia-ischemia injury, J147 10 mg/kg/day for 2 weeks, 10 mg/kg/day) is “reduced lesion size; also recorded: substantial reduction of effect compared with HI; also recorded: almost entirely reduces the area of brain injury”. Further, the “MRI reduction in infarction volume, HIJ mice compared with untreated HI mice” value in data set [2] (MRI measurements at 50 days) is recorded as around 50%. Also, the “MRI imaging reduction in lesion size” value in [2] (adult mice, two weeks of J147 treatment 10 mg/kg/day oral gavage, p<0.001) is given as 88%. For the same compound, the “TUNEL+ cells in dentate gyrus” value in [3] (0.5 μg/g/day oral gavage P10-P14, p>0.05) was 123.2+51.5 cells; in [3] (1 μg/g/day oral gavage P10-P14, p>0.05) it was 107.8+42.7 cells; in data set [3] (5 μg/g/day oral gavage P10-P14, p<0.01), 55+23.6 cells; in data set [3] (10 μg/g/day oral gavage P10-P14, p<0.001), 42.2+23 cells; in [3] (25 μg/g/day oral gavage P10-P14, p<0.001), 31.7+21.4 cells. For the same compound, the “Performance in the open field test” value in data set [4] is recorded as “significant improvement”. The “Open field test performance, improvement” value in data set [4] (J147 treatment group) is on record as “about 25%”. Moreover, in [5], the “Performance in the rotarod test” value is listed as “significant improvement”. For the same compound, in [5] (chronic, J147 treatment group), the “Rotarod test performance, improvement” value is “about 25%”. For the same compound, the “Y-maze spatial learning task, improvement compared to HI controls” value in data set [6] came out at 33%. Moreover, the Tbr2-positive cells result in data set [7] (at one week after injury) is “significant increase”. Besides, in data set [7] (one day and one week after injury), the Nestin-positive cells entry is “increased”. Besides, the “NeuN+ area in hippocampus” value in [8] (HI+J147, daily 10 μg/g gavage P10 to P14, SH 0.52, HI 0.32, p=0.0433) is given as 0.45 mm2/section. Besides, the “TUNEL+ apoptotic cells in hippocampus” value in data set [8] (HI+J147, daily 10 μg/g gavage P10 to P14, SH 36.33, HI 372.67, p=0.0092) is recorded as 208.17 /section. Also, in data set [8] (J147 treatment, summary), the “Reduction in apoptotic cell death in the hippocampus” value is recorded as “roughly 50%”.
`[Mg+2]` [Magnesium]: the “Effect on post-surgical cognitive dysfunction” value in [9] is “failed to reduce post-surgical cognitive dysfunction”.
On to `Cc1cccc([C@H](C)c2cnc[nH]2)c1C` [Dexmedetomidine], for which the “Effect on post-surgical cognitive dysfunction” value in [9] is reported as “failed to show efficacy”.
Consider `CCN(C)C(=O)Oc1cccc([C@H](C)N(C)C)c1` [Rivastigmine], for which, in data set [9] (clinical investigation NCT00835159, terminated), the “Safety in seriously ill patients after surgery” value is “too dangerous”. In addition, the “Effect on post-surgical cognitive dysfunction” value in [9] was “no efficacy was observed”.
As for `COc1cc2c(cc1OC)C(=O)C(CC1CCN(Cc3ccccc3)CC1)C2` (stereo not shown) [donepezil], the “Effect on the overall cognitive index” value in data set [9] (patients with cognitive decline one year after cardiac surgery) is on record as “had no effect”.
